Active and inactive are the calls of the source.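 The calls were made as follows: active = mean IC50 below 20 µM in each of the two panels, so potent in both; inactive = the rest.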
Biological target: Neuropilin-1 (Homo sapiens) (UniProt O14786)
Experiment: blockers of CendR peptide binding to NRP-1 – biochemical, FP and AlphaScreen panel, dose response (AID 651650)
Conditions: NRP-1 b1b2 / RPARPAR peptide binding, FP or AlphaScreen
[1] = AlphaScreen, run 1, individual panel run IC50
[2] = FP, run 1, individual panel run IC50
[3] = FP, run 2, individual panel run IC50

Neuropilin-1 (Homo sapiens), sequence (O14786 whole entry, looked up): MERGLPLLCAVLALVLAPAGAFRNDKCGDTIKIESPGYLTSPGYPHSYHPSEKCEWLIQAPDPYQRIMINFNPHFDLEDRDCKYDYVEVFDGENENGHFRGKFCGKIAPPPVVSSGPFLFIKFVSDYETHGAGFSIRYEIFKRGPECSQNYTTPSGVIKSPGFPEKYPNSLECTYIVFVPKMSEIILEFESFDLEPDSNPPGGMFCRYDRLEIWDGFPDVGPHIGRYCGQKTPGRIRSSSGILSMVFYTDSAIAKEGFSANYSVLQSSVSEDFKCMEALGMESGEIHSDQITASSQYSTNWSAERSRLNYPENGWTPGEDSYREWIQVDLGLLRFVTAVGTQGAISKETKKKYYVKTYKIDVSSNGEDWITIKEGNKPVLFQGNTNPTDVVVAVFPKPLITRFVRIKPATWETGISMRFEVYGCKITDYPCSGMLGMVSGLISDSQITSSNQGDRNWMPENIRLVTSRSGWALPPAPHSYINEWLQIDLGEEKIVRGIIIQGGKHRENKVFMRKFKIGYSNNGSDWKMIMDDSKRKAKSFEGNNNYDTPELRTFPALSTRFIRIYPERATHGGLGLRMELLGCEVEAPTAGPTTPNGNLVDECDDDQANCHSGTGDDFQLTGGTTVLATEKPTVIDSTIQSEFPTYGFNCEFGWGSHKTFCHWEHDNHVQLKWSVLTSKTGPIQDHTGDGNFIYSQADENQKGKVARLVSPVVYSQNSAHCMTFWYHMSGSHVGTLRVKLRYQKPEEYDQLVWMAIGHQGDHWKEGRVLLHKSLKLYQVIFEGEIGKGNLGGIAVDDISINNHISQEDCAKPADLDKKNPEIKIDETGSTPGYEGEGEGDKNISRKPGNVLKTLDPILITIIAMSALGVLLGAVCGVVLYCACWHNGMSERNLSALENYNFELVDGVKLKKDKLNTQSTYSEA

Row | Structure (SMILES) | IC50 (AlphaScreen, mean of runs) | IC50 [1] [µM] | IC50 (FP, mean of runs) | IC50 [2] [µM] | IC50 [3] [µM]
1 | Cc1ccc(NC(=O)COc2ncnc3c(Cl)cc(Cl)cc23)cc1[N+](=O)[O-] | > 100 µM (inactive) | > 100 | > 95 µM (inactive) | > 95 | > 95
2 | O=C(O)C1CCN(C(=O)c2ccc(Cl)cc2)CC1 | > 100 µM (inactive) | > 100 | > 95 µM (inactive) | > 95 | > 95
3 | CCOC(=O)c1c(=O)n(O)c2ccc(OC)cc2[n+]1[O-] | > 100 µM (inactive) | > 100 | > 95 µM (inactive) | > 95 | > 95
4 | Cc1ccc(C(=O)Nc2ccccc2-c2ccccc2)cc1S(=O)(=O)Nc1ccccc1 | > 100 µM (inactive) | > 100 | > 95 µM (inactive) | > 95 | > 95
5 | O=C(CN1C2=NCCN2c2ccccc21)c1ccco1 | > 100 µM (inactive) | > 100 | > 95 µM (inactive) | > 95 | > 95
6 | CCOCCCNC(=O)C(c1ccc(C)cc1)N(Cc1cccs1)C(=O)c1ccccc1O (stereo not given) | > 100 µM (inactive) | > 100 | > 95 µM (inactive) | > 95 | > 95
7 | CCn1c(N)c(C(=O)NCc2cccnc2)sc1=S | 13 µM | 13 | inactive | > 95 | 30.1
8 | CC(C)c1ccc(S(=O)(=O)N2CCN(C(=O)CN3C(=O)c4ccccc4C3=O)CC2)cc1 | > 100 µM (inactive) | > 100 | > 95 µM (inactive) | > 95 | > 95
9 | CCc1ccccc1NC(=O)c1ccccc1N1C(=O)C2C3C=CC(C3)C2C1=O (stereo not given) | inactive | 96.8 | > 95 µM (inactive) | > 95 | > 95
10 | c1ccc2c3n(nc2c1)CCCO3 | > 100 µM (inactive) | > 100 | > 95 µM (inactive) | > 95 | > 95
11 | O=C(c1ncn(Cc2ccccc2)c1C(=O)N1CCc2ccccc2C1)N1CCc2ccccc2C1 | > 100 µM (inactive) | > 100 | > 95 µM (inactive) | > 95 | > 95
12 | COc1cc2oc(=O)ccc2cc1[C@@H](O)[C@@H]1OC(C)(C)OC1(C)C | > 100 µM (inactive) | > 100 | > 95 µM (inactive) | > 95 | > 95
13 | CCOC(=O)C1=C(O)C(=O)N(c2ccccc2)C1c1cccc([N+](=O)[O-])c1 (stereo not given) | > 100 µM (inactive) | > 100 | > 95 µM (inactive) | > 95 | > 95
14 | COc1cccc(OCCNC(=O)Nc2cc(F)c(F)cc2Cl)c1 | > 100 µM (inactive) | > 100 | > 95 µM (inactive) | > 95 | > 95
15 | CN1C(=O)c2oc3ccccc3c(=O)c2C1c1ccccn1 (stereo not given) | inactive | 34.9 | inactive | 25.1 | 21.4
16 | Cc1ccc(C(=O)NCCCc2ccccc2)c(C)c1 | > 100 µM (inactive) | > 100 | > 95 µM (inactive) | > 95 | > 95
17 | COc1ccc(OCC(=O)O/N=C(\N)Cc2ccc(Cl)cc2Cl)cc1 | inactive | 55.3 | > 95 µM (inactive) | > 95 | > 95
18 | Cc1ccc(C)c(-n2c(SCC(=O)NC(C(=O)O)C(C)C)nnc2-c2cccc(Cl)c2)c1 (stereo not given) | > 100 µM (inactive) | > 100 | > 95 µM (inactive) | > 95 | > 95
19 | COc1cc2c(cc1OC)C(Nc1ccc(S(N)(=O)=O)cc1)=NC(C)(C)C2 | inactive | 51.8 | > 95 µM (inactive) | > 95 | > 95
20 | O=C(Cc1ccc(F)cc1)N1CCN=C1SCc1ccc([N+](=O)[O-])cc1 | > 100 µM (inactive) | > 100 | > 95 µM (inactive) | > 95 | > 95
21 | O=C(O)CSc1nnc(-c2ccc(Cl)cc2Cl)n1-c1ccc(Cl)cc1 | inactive | 39.9 | inactive | > 95 | 34.4
22 | COc1ccc(NC(=O)CN2CCN(c3c(C)cc(C)cc3C)CC2)cc1 | > 100 µM (inactive) | > 100 | > 95 µM (inactive) | > 95 | > 95

Source: PubChem BioAssay AID651650 (Sanford-Burnham Center for Chemical Genomics, 2012)
